Activity calls are given as the source filed them.
Legend:
Genome polyprotein = Genome polyprotein (dengue virus type 2, UniProt P29990); test: Dengue-2 NS5 methyltransferase inhibitors, primary screen, biochemical, confirmation dose response (AID 588689); format: functional
[1] = target: DNA (cytosine-5)-methyltransferase 1 (Homo sapiens, UniProt P26358); test: DNMT1 methyltransferase inhibitors, confirmation, biochemical, fluorescent molecular beacon (AID 602386); format: functional
Phospholipase A2 = Phospholipase A2 (Homo sapiens, UniProt P04054); format: functional;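 note: confirmatory dose-response counterscreen on phospholipase A2, testing hits that came from an ultra-high-throughput screen for ATG4B inhibitors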
Cysteine protease ATG4B = Cysteine protease ATG4B (Homo sapiens, UniProt Q9Y4P1); format: functional;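 note: Fluorescence-based dose-response confirmation assay measuring inhibition of ATG4B activity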
Protein RecA = target: T1, Protein RecA (Mycobacterium tuberculosis, UniProt P9WHJ3); test: Fluorescence Cell-Free Homogeneous Dose Retest to Identify Inhibitors of RecA-Intein Splicing Activity. [Related pubchem assays (depositor defined):AID2097, AID2223, AID489010, AID492950]; format: functional
T1 sequence (P9WHJ3 whole entry): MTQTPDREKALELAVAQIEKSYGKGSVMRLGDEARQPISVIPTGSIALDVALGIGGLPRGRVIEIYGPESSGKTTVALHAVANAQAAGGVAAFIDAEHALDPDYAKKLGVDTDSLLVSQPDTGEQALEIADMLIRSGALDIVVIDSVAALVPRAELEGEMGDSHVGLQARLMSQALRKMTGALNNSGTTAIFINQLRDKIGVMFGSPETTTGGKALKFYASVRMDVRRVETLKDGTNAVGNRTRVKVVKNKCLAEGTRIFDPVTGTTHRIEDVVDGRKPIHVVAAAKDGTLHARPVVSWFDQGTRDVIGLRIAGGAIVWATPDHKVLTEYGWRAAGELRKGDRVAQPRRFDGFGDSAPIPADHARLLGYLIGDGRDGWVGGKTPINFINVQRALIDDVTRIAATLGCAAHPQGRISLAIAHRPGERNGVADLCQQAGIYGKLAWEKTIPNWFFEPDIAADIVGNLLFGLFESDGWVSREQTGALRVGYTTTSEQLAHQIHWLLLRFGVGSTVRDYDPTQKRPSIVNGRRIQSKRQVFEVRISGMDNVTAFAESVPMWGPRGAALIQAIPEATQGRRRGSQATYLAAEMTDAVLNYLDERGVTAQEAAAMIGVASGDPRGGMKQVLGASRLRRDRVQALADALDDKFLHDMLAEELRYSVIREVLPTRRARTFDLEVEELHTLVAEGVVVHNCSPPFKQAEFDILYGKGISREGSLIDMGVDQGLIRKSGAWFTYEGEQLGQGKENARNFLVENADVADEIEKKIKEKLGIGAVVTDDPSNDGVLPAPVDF

[2] = target: T2, Replicative DNA helicase DnaB (Mycobacterium tuberculosis, UniProt P9WMR3); test: DnaB intein splicing inhibitors, dose response, biochemical, cell-free fluorescence (AID 449749); format: functional
T2 sequence (P9WMR3 whole entry): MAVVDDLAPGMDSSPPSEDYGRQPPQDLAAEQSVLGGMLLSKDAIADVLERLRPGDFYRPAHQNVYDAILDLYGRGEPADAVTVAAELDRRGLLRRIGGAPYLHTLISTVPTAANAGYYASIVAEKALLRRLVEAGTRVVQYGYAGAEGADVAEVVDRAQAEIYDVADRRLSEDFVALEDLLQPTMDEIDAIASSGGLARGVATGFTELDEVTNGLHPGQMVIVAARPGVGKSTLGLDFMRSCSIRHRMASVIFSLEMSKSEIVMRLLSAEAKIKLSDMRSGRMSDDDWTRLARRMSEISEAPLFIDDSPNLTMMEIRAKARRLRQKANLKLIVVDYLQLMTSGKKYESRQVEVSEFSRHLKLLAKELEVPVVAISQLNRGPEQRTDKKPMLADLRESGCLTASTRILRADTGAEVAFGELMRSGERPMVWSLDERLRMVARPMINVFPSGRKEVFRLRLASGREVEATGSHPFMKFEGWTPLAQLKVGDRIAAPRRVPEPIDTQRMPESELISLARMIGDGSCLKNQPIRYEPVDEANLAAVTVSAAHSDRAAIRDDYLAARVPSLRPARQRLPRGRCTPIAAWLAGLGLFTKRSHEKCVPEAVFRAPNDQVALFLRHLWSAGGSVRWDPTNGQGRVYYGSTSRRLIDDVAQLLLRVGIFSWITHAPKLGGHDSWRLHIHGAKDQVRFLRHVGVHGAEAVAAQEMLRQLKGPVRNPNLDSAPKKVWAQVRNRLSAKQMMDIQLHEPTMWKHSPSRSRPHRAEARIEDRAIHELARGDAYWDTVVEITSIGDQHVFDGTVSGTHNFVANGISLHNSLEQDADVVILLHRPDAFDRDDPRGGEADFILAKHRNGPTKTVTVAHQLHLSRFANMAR

[3] = target: T3, Serine/threonine-protein kinase Nek2 (Homo sapiens, UniProt P51955); format: functional
T3 sequence (P51955 whole entry): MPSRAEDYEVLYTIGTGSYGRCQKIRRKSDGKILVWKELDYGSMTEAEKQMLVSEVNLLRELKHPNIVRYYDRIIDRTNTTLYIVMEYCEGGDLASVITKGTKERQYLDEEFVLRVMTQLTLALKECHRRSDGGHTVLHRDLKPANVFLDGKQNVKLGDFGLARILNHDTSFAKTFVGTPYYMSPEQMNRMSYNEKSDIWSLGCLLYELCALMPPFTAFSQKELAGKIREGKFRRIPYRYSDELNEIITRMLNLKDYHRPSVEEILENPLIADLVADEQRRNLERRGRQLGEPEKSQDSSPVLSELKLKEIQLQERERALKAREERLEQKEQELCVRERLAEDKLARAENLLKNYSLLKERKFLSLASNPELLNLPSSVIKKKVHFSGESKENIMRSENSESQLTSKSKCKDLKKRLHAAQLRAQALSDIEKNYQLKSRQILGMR

[4] = target: Interleukin-1 receptor-associated kinase 4 (Homo sapiens, UniProt Q9NWZ3); format: functional
[5] = target: Cyclin-dependent kinase 5 (Homo sapiens, UniProt Q00535); format: functional;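 note: CDK5 measured as one member of a kinase profiling panel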
LIM domain kinase 1 = LIM domain kinase 1 (Homo sapiens, UniProt P53667); test: Navigating the Kinome. Panel member name: LIMK1; format: functional
[6] = target: Mitogen-activated protein kinase 9 (Homo sapiens, UniProt P45984); format: functional;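 note: value from a kinome panel profiling assay, MAPK9 panel entry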
[7] = target: Serine/threonine-protein kinase D2 (Homo sapiens, UniProt Q9BZL6); format: functional;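 note: measured against PRKD2 as one member of a kinome-wide kinase profiling panel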
[8] = target: MAP kinase-activated protein kinase 3 (Homo sapiens, UniProt Q16644); format: functional;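 note: value comes from a kinome-wide profiling panel in which MAPKAPK3 is one of the panel members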
[9] = target: RAC-gamma serine/threonine-protein kinase (Homo sapiens, UniProt Q9Y243); format: functional
[10] = target: Dual specificity tyrosine-phosphorylation-regulated kinase 1A (Homo sapiens, UniProt Q13627); format: functional;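 note: measured against DYRK1A as one member of a broad kinome profiling panel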
[11] = target: Serine/threonine-protein kinase PAK 1 (Homo sapiens, UniProt Q13153); format: functional
[12] = target: Serine/threonine-protein kinase pim-1 (Homo sapiens, UniProt P11309); format: functional
[13] = target: Cyclin-dependent kinase 1 (Homo sapiens, UniProt P06493); format: functional;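 note: Kinome-wide panel profiling, with the target listed as panel member CDC2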
[14] = target: Serine/threonine-protein kinase MRCK alpha (Homo sapiens, UniProt Q5VT25); format: functional
[15] = target: Rho-associated protein kinase 1 (Homo sapiens, UniProt Q13464); format: functional;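 note: measured within a broad kinome-wide panel profiling many kinases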
Prothrombin = Prothrombin (Bos taurus, UniProt P00735); test: thrombin inhibition, dose response, biochemical, fluorescence polarization, uHTS hits (AID 602369); format: functional
X-box-binding protein 1 = X-box-binding protein 1 (Homo sapiens, UniProt P17861); format: functional, Cricetulus griseus;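 note: confirmatory dose-response counter-screen serving a CHOP assay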
[16] = target: 72 kDa type IV collagenase (Homo sapiens, UniProt P08253); test: Dose Response validation of uHTS RPN11 inhibitor hits using a MMP-2 Fluorescence assay.; format: functional
[17] = target: Serine/threonine-protein phosphatase (Homo sapiens, UniProt Q9BPW0); test: Counterscreen for inhibitors of PP1: fluorescence-based biochemical high throughput dose response assay to identify inhibitors of Protein Phosphatase 5 (PP5). [Related pubchem assays: 2034 (Summary (PP5 inhibitors)), 1987 (PP5 inhibitors in singlate), 2235 (PP1 inhibitors in singlate)]
[18] = target: 26S proteasome non-ATPase regulatory subunit 14 (Homo sapiens, UniProt O00487); test: inhibition of proteasome subunit RPN11 – biochemical, fluorescence polarization, uHTS hits, confirmation (AID 602368); format: functional
[19] = target: Serine/threonine-protein phosphatase PP1-alpha catalytic subunit (Homo sapiens, UniProt P62136); test: PP1 phosphatase inhibitors, dose response, biochemical, fluorescence (AID 2403);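 note: phosphatase turnover of OMFP into fluorescent 3-O-methylfluorescein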
[20] = target: Ribosomal protein S6 kinase alpha-3 (Homo sapiens, UniProt P51812); format: functional;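 note: measured within a kinome-wide profiling panel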
[21] = target: Casein kinase II subunit alpha (Homo sapiens, UniProt P68400); format: functional
[22] = target: Serine/threonine-protein kinase PLK3 (Homo sapiens, UniProt Q9H4B4); format: functional
[23] = target: MAP kinase-activated protein kinase 2 (Homo sapiens, UniProt P49137); format: functional;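 note: measured as one member of a kinome-wide kinase panel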
[24] = target: T4, Alkaline phosphatase, tissue-nonspecific isozyme (Homo sapiens, UniProt P05186); test: TNAP enzyme inhibition by screening hits, dose response, selectivity assay for mouse IAP inhibitor project, biochemical, human TNAP, uHTS hits (AID 488906); format: functional
T4 sequence (P05186 whole entry): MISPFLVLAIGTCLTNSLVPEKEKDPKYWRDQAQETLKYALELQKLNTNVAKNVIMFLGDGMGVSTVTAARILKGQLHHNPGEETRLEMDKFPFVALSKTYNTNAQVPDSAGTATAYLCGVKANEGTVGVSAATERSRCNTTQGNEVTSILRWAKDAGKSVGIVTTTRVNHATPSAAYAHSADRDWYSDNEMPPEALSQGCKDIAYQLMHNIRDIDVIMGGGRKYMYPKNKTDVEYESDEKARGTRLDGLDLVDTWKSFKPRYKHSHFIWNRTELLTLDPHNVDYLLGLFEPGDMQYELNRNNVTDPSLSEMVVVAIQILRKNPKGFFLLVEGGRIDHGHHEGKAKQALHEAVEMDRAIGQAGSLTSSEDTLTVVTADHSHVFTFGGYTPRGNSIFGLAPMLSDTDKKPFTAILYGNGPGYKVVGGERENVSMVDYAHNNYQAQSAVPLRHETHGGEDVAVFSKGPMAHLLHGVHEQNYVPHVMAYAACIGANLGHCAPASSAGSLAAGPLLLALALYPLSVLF

CHO = test: cytotoxicity in TLR9-MyD88 CHO cells, dose response, cytotoxicity control for TLR9-MyD88 binding inhibitor project, cell-based, luminescence (AID 588339); format: functional, hamster; conditions: Cricetulus griseus;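 note: CHO cells stably coexpressing TLR9 and MyD88 fusions from primary screen; compound exposure lasted 48 hours before viability readout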
[25] = target: Intestinal-type alkaline phosphatase (Homo sapiens, UniProt P09923); test: inhibition of human intestinal alkaline phosphatase – biochemical, dose response (AID 488876); format: functional
[26] = target: Intestinal-type alkaline phosphatase (Mus musculus, UniProt P24822); test: PubChem AID 488785; format: functional
Beta Lactamase = Beta Lactamase (Pseudomonas aeruginosa, UniProt Q932Y6); test: beta-lactamase reporter inhibitor potency, dose response, artefact control for TLR9-MyD88 binding inhibitor project, BLA reporter cells, FRET fluorescence (AID 588341); format: cell-based;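 note: cell based assay in CHO-K1 cells stably expressing beta-lactamase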

Sequence of Serine/threonine-protein kinase MRCK alpha (Q5VT25 whole entry): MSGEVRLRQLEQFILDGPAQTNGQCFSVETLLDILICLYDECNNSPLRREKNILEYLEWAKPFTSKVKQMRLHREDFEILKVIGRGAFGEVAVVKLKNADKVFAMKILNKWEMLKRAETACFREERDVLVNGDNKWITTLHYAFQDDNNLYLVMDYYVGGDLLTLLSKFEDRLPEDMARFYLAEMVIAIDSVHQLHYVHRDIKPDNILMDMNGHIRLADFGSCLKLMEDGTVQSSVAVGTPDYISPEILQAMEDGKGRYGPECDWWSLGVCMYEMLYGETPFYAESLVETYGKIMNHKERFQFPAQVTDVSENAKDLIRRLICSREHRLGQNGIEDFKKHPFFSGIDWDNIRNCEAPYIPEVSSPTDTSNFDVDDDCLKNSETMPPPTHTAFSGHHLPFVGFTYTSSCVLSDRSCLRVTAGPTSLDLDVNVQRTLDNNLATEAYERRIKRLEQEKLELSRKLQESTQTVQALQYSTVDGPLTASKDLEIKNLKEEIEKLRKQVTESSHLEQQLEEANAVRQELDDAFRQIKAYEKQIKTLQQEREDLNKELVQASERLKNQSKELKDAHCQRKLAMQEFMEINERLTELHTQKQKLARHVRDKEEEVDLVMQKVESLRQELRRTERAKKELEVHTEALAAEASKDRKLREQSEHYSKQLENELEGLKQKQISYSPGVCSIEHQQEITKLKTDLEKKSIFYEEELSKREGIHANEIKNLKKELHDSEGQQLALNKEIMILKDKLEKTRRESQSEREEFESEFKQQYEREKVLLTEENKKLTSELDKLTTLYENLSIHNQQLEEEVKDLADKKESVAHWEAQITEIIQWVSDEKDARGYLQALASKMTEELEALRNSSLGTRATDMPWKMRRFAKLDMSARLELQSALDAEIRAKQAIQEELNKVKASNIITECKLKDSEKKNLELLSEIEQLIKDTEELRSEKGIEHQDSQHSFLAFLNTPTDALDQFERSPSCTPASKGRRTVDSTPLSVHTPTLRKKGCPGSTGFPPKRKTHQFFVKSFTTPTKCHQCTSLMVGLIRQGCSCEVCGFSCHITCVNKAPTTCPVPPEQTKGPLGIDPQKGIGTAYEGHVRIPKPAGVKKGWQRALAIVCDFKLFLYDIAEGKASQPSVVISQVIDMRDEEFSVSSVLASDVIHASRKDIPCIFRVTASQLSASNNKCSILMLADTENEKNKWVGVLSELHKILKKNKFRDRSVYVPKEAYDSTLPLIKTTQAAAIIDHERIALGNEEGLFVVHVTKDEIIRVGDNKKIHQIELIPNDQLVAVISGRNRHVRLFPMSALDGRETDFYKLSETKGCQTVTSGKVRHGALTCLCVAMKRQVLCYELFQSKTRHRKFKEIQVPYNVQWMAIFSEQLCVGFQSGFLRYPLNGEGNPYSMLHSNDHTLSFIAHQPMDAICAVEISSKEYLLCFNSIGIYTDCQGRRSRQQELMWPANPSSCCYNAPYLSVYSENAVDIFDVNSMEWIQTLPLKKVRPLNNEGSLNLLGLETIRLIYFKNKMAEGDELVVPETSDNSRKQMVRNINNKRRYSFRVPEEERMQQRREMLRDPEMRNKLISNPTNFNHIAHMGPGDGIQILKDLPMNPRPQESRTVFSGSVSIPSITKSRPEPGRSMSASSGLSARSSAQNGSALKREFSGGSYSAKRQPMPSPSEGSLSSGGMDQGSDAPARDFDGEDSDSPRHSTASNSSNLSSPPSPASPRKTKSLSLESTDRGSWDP
Sequence of Ribosomal protein S6 kinase alpha-3 (P51812 whole entry): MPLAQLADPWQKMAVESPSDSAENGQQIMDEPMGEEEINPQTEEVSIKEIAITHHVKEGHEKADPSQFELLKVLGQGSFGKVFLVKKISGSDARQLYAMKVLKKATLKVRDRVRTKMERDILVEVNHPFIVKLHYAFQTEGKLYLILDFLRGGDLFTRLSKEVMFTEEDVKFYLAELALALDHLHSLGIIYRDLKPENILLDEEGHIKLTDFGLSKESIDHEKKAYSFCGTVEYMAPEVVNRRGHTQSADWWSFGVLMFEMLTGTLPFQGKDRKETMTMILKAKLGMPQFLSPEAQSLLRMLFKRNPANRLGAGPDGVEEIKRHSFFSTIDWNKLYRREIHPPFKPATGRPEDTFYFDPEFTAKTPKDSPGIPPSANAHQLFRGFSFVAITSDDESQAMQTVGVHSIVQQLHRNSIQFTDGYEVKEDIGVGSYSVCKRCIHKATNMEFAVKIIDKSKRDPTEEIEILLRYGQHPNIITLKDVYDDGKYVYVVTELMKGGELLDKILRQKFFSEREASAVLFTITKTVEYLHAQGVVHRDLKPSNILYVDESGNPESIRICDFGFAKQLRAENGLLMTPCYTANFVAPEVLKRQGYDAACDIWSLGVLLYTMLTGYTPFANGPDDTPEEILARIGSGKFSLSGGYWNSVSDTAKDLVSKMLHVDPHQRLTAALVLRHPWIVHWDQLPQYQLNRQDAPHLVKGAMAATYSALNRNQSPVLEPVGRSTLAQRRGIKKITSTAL
Sequence of Cyclin-dependent kinase 5 (Q00535 whole entry, the tested form may be a part): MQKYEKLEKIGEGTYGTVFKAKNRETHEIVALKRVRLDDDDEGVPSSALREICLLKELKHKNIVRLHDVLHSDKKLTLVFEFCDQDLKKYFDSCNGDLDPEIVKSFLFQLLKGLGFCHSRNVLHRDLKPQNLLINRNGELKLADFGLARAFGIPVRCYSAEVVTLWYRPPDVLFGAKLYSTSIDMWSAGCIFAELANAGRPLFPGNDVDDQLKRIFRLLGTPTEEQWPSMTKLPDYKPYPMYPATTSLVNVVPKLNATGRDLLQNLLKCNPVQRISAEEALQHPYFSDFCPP
Sequence of Phospholipase A2 (P04054 whole entry): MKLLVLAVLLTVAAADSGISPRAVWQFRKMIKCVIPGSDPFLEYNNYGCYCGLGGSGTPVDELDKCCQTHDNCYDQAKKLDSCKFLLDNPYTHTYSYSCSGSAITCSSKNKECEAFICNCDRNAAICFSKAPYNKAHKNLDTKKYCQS
Sequence of Serine/threonine-protein kinase D2 (Q9BZL6 whole entry): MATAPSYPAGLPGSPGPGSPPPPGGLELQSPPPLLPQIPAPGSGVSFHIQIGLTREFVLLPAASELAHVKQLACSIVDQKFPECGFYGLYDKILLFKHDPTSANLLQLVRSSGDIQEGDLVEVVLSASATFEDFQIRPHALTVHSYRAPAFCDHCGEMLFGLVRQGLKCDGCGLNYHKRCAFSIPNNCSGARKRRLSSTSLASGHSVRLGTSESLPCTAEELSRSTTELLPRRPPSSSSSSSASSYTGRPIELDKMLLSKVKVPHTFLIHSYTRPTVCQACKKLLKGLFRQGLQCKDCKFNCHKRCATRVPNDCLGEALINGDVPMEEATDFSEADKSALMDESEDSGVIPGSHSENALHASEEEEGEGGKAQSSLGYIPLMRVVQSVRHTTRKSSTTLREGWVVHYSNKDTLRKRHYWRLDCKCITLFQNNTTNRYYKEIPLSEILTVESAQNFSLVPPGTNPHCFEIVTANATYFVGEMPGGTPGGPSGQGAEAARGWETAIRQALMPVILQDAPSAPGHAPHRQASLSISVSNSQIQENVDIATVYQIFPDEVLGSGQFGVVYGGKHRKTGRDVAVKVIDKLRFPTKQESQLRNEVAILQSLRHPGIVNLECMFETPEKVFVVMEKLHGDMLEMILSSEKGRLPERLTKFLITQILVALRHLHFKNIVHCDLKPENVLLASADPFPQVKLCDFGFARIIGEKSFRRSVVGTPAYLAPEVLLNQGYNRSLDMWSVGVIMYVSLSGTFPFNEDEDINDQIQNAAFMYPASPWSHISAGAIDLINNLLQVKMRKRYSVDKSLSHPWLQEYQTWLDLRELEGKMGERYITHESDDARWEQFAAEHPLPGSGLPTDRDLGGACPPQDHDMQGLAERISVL
Sequence of RAC-gamma serine/threonine-protein kinase (Q9Y243 whole entry): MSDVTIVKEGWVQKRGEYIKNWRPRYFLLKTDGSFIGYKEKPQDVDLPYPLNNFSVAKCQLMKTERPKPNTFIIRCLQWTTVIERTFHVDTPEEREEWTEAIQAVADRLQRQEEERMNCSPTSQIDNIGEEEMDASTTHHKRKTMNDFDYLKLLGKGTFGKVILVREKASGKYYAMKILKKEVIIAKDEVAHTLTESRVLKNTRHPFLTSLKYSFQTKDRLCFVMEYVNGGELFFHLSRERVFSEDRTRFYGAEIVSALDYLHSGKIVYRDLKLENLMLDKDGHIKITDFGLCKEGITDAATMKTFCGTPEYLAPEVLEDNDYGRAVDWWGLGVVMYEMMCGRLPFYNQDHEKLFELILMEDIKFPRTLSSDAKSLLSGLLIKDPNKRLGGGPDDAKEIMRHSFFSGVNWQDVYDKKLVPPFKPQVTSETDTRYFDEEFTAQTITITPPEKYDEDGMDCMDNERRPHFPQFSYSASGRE
Sequence of Serine/threonine-protein kinase PLK3 (Q9H4B4 whole entry): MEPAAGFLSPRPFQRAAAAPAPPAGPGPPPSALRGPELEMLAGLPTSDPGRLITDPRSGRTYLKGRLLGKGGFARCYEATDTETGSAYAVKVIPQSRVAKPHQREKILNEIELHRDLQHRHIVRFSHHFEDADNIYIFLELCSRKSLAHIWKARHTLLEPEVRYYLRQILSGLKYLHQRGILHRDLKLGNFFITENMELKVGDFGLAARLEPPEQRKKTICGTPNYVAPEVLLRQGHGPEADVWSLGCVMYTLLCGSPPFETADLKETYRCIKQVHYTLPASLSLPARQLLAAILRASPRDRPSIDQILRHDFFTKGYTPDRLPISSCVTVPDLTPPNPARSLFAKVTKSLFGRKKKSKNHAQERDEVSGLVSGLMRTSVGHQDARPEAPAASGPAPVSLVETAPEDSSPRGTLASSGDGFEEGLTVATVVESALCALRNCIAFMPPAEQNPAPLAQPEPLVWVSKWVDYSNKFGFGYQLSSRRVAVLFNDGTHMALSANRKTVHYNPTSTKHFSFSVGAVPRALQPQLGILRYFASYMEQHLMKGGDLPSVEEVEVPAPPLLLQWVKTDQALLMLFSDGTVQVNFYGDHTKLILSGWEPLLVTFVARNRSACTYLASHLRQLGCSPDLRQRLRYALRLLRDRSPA

C/C(=C/CCC(C)[C@H]1CC[C@@]2(C)C3=C(CC[C@]12C)[C@@]1(C)CCC(=O)C(C)(C)[C@@H]1CC3)C(=O)O (stereo not given in full)
IC50 (Genome polyprotein): 47.9 µM (active)
IC50 [1]: 5.93 µM (active)
IC50 (Phospholipase A2): 2.04 µM (active)
IC50 (Cysteine protease ATG4B): 5.45 µM (active)
EC50 (Protein RecA): 5.88 µM (active)
AC50 [2]: 2.12 µM (active)

O=C(Nc1ccc(CO)cc1)c1cnn2c(-c3ccccc3)ccnc12
Ki [3]: > 10 µM (inactive)
Ki [4]: 2.51 µM (active)
Ki [5]: > 10 µM (inactive)
Ki (LIM domain kinase 1): > 10 µM (inactive)
Ki [6]: 0.794 µM (active)
Ki [7]: > 10 µM (inactive)
Ki [8]: > 10 µM (inactive)
Ki [9]: > 10 µM (inactive)
Ki [10]: 1.26 µM (active)
Ki [11]: > 10 µM (inactive)
Ki [12]: > 10 µM (inactive)
Ki [13]: > 7.94 µM (inactive)
Ki [14]: > 10 µM (inactive)
Ki [15]: > 10 µM (inactive)

O=C(N/N=C/c1ccccn1)c1cc(-c2ccc3ccccc3c2)[nH]n1
IC50 (Prothrombin): 28.7 µM (active)
Absolute IC50 (XBP1) (X-box-binding protein 1): 10 µM
IC50 [16]: > 100 µM (inactive)
IC50 [17]: > 67 µM (not active)
IC50 [18]: 13 µM (active)
IC50 [19]: 6.53 µM (active)

Nc1ccc2[nH]c(=O)cnc2c1
Ki [20]: 7.94 µM (active)
Ki [21]: 12.6 µM (active)
Ki [22]: 6.31 µM (active)
Ki [23]: 10 µM (active)

COc1cc(/C=C/C(O)=C/C(=O)/C=C/c2ccc(O)cc2)ccc1O [DEMETHOXYCURCUMIN]
IC50 [24]: > 100 µM (inactive)
IC50 (CHO): 39.3 µM (inactive)
IC50 [25]: > 100 µM (inactive)
IC50 [26]: 8.38 µM (active)
IC50 (Beta Lactamase): 8.09 µM (active)

— ChEMBL document CHEMBL1201862, “PubChem BioAssay data set” (2004)
